According to paper PMC4706877, “Antibacterial and Cytotoxic Activity of Compounds Isolated from Flourensia oolepis” (Evidence-based Complementary and Alternative Medicine : eCAM, 2015):
≈ marks a conversion by molar mass, not a printed value. Read-outs that look alike come from different tables or passages of the source.

What was measured:
normal hepatocytes = tested on: normal hepatocytes; set-up: method as in PMID 15223357; details: trypan blue exclusion method; cited from earlier work
K562 cells = test: Apoptosis by Annexin V/PI double staining; type: cell-based, human; details: 2 × IC50, 72 h
Experimental: (§1) After incubation, cells were harvested, washed, and suspended in cold PBS. The proportion of cells undergoing apoptosis was examined by double staining using allophycocyanin (APC) conjugated Annexin-V (BD Pharmingen, USA) and propidium iodide (Sigma-Aldrich CO, USA). Over the following hour, the fluorescence of ten thousand cells, including that of control groups, was assayed and populations were analyzed with FlowJo software version 7.6.2 (Tree Star, Inc., OR, USA). Percentages of Annexin-V positive cells (PI− or PI+) indicate early or late apoptosis, respectively.

CCRF-CEM cells = test: Apoptosis by Annexin V/PI double staining; type: cell-based, human; details: 2 × IC50, 72 h
Experimental: as §1

[1] = tested on: K562 chronic myeloid leukemia cells; test: MTT cell proliferation assay; type: cell-based, human; details: for IC50: K562, MTT, 72 h, read-out: IC50 values and 95% confidence limits (lower, upper)
Experimental: (§2) The HEK293T non-tumor derived cell line and human isolated mononuclear cells (PBMC) were also tested. […] Cells were cultured at 37°C in a 5% CO2 humidified environment.
(§3) To investigate the cytotoxic potential of the isolated compounds, the MTT colorimetric assay was performed. […] The compounds were evaluated at a final maximum concentration of 100 μM. After 72 hours, 20 μL of 5 mg/mL solution of MTT in sterile PBS was added to each well and further incubated for 4 h. Then, the supernatants were removed and replaced with 100 μL DMSO to solubilize the resulting purple formazan crystals produced from metabolically viable cells. Absorbance was measured with an iMark micro-plate reader (Bio-Rad, USA) at 595 nm. Two wells were used for each concentration of the products assayed and three independent experiments were performed. […] The percentage of cytotoxic activity of the assayed compounds was determined by the following formula: cytotoxicity (%) = [1 − (optical density of treated cells − optical density DMSO)/(optical density of ethanol control cells − optical density DMSO)] × 100.
(§4) Data were analyzed by one-way analysis of variance (ANOVA) and means were compared using Bonferroni's comparison test, with p ≤ 0.05 considered as statistically significant.

[2] = tested on: CCRF-CEM acute lymphoblastic leukemia cells; test: MTT cell proliferation assay; type: cell-based, human; details: for IC50: CCRF-CEM, MTT, 72 h, read-out: IC50 values and 95% confidence limits (lower, upper)
Experimental: as §2, §3, §4

[3] = tested on: Staphylococcus aureus subsp. aureus (ATCC 6538); test: Agar dilution MIC / MBC; type: cell-based; details: S. aureus; for MBC: value in parentheses
Experimental: (§5) This isolate was identified by conventional biochemical assays and by the commercial system API20E (bioMérieux SA, Mercy L'Etoile, France). Antimicrobial resistances were determined by disk diffusion susceptibility testing (Kirby-Bauer Method) according to CLSI [15]. Bacterial suspensions were prepared on sterile saline from each organism grown overnight. Turbidity was spectrophotometrically adjusted to the McFarland 0.5 standard. Dilutions were carried out with sterile saline to give an adjusted concentration of 1.5 × 10^7 colony-forming units/mL.
(§6) Three independent experiments were carried out. […] For reading, visual observations were carried out.

[4] = tested on: tetracycline, erythromycin, and polymyxin-resistant Proteus mirabilis (Pr2921); test: Agar dilution MIC / MBC; type: cell-based; details: P. mirabilis
Experimental: as §5, §6

[5] = tested on: Enterococcus faecalis (ATCC 29212); test: Agar dilution MIC / MBC; type: cell-based; details: ATCC29212, E. faecalis
Experimental: as §5, §6

[6] = tested on: Pseudomonas aeruginosa (ATCC 27853); test: Agar dilution MIC / MBC; type: cell-based; details: ATCC27853, P. aeruginosa
Experimental: as §5, §6

[7] = tested on: sensitive and resistant leukemic cells; test: MTT assay, summary over leukemic cell lines; type: cell-based; details: Homo sapiens, read-out: IC50 values, range
From the text: (§7) CCRF-CEM acute lymphoblastic leukemia (ALL) and K562 chronic myeloid leukemia (CML) cells and their MDR P-glycoprotein overexpressing variants, CEM/ADR5000 and Lucena 1, respectively, were a generous gift from Dr. T. Efferth (Institute of Pharmacy and Biochemistry, Johannes Gutenberg University, Mainz, Germany) and Dr. V. Rumjanek (Instituto de Bioquímica Médica Leopoldo de Meis, Universidade Federal do Rio de Janeiro, Rio de Janeiro, Brazil), respectively. The HEK293T non-tumor derived cell line and human isolated mononuclear cells (PBMC) were also tested. […]
(§8) To investigate the cytotoxic potential of the isolated compounds, the MTT colorimetric assay was performed. […] The compounds were evaluated at a final maximum concentration of 100 μM. […] Absorbance was measured with an iMark micro-plate reader (Bio-Rad, USA) at 595 nm. […] The percentage of cytotoxic activity of the assayed compounds was determined by the following formula: cytotoxicity (%) = [1 − (optical density of treated cells − optical density DMSO)/(optical density of ethanol control cells − optical density DMSO)] × 100.

[8] = tested on: peripheral blood mononuclear cells (PBMC); test: MTT cell proliferation assay; type: cell-based; details: Homo sapiens
From the text: as §7, §8

[9] = tested on: HEK293T non-tumor derived cell line; test: MTT cell proliferation assay; type: cell-based; details: Homo sapiens, HEK-293T
From the text: as §7, §8

For `O=C(/C=C/c1ccccc1)c1ccc(O)cc1O` [Compound 1, 2′,4′-dihydroxychalcone], the IC50 (normal hepatocytes) is given as 34 µg/mL (≈ 142 µM), the “early and late apoptotic cells” value (K562 cells) is given as 68.7% and the “early and late apoptotic cells” value (CCRF-CEM cells) is given as 26.7%. For the same compound, the IC50 ([1]; Homo sapiens, K562, 72 h) was < 30 µM, the “selectivity index (SI)” value ([1]; IC50 PBMC / IC50 K562) was 3.0 and the IC50 [1] was 27.5 µM. The IC50 [2] was 6.6 µM, the IC50 ([2]; Homo sapiens) was < 10 µM and the “selectivity index (SI)” value ([2]; IC50 HEK293T / IC50 CCRF-CEM) was 10.1. For the same compound, the “selectivity index (SI)” value ([2]; IC50 PBMC / IC50 CCRF-CEM) was 12.5, the MBC [3] was 31 (31) μg/mL and the MIC ([3]; Staphylococcus aureus, ATCC6538, agar dilution, 24 h) was 31 µg/mL (≈ 129 µM). For the same compound, the MBC ([3]; Staphylococcus aureus, ATCC6538, read-out: MBC) was 31 µg/mL (≈ 129 µM), the MIC ([4]; agar dilution, 24 h) was 62 µg/mL (≈ 258 µM) and the MBC ([4]; value in parentheses) was 125 µg/mL (≈ 520 µM). For the same compound, the MIC ([5]; agar dilution, 24 h) was 62 µg/mL (≈ 258 µM), the MBC ([5]; value in parentheses) was 125 µg/mL (≈ 520 µM) and the MIC ([6]; agar dilution, 24 h) was 250 µg/mL (≈ 1040 µM). For the same compound, the MBC ([6]; value in parentheses) was > 500 µg/mL, the IC50 [7] was 6.6 to 30 µM and the IC50 [8] was 82.8 µM. For the same compound, the IC50 [9] was 67 µM.
